This note sets out measurements from patent US20210220367A1, “INHALABLE FORMULATION OF A SOLUTION CONTAINING GLYCOPYRROLATE AND OLODATEROL HYDROCHLORIDE” (priority 2020, published 2021).

The data set can be described thus: Aerodynamic particle size distribution, Next Generation Pharmaceutical Impactor (NGI). The data set is classed as physicochemical. As to conditions: sample 2 (GB 1.13 mg/ml; pH 3.0), soft mist inhaler, NGI 30 L/minute, RH 90%, HPLC per active. Here is the method:
The aerodynamic particle size distribution was determined using a Next Generation Pharmaceutical Impactor (NGI). The soft mist inhaler was held close to the NGI inlet until no aerosol was visible. The flow rate of the NGI was set to 30 L/minute and was operated under ambient temperature and a relative humidity (RH) of 90%.
The solution of sample 2 was discharged into the NGI. Fractions of the dose were deposited at different stages of the NGI, in accordance with the particle size of the fraction. Each fraction was washed from the stage and analyzed using HPLC.
The particle size distribution was expressed in terms of mass median aerodynamic diameter (MMAD) and Geometric Standard Deviation (GSD). […] The sample is sample 2 as described in Example 4 (GB 1.13 mg/ml; pH 3.0). The aerodynamic particle size distribution of sample 2 was investigated by means of the original research device of TB-OH and a new generation of cascade impactor.

On to `COc1ccc(CC(C)(C)NC[C@H](O)c2cc(O)cc3c2OCC(=O)N3)cc1.Cl` [Olodaterol hydrochloride, 2H-1,4-Benzoxazin-3H(4H)-one, 6-hydroxy-8-[(1R)-1-hydroxy-2-[[2-(4-methoxyphenyl)-1,1-dimethylethyl]-amino]ethyl], monohydrochloride], for which the GSD was 1.79 and the “MMAD (μm)” value turned out to be 4.01 μm.

For “(3RS)-3-[(2SR)-(2-cyclopentyl-2-hydroxy-2-penylacetyl)oxy]-1,1-dimethlypyrrolidinium bromide [Glycopyrrolate]”, the GSD was 1.77 and the “MMAD (μm)” value is 4.05 μm.
